Experiments:
Experiment in all cases: relative viability (nuclei count vs DMSO), 5 days (fraction); higher = more cells survive
[1] = compound: CN(c1ncccc1CNc1nc(Nc2ccc3c(c2)CC(=O)N3)ncc1C(F)(F)F)S(C)(=O)=O + N=C(N)NC(=N)NCCc1ccccc1 [Phenformin] (partner 250 µM)
Method in brief: (§1)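 Medians of duplicate plates are given as relative viability. That measure is the nuclei count in treated wells divided by the count in vehicle wells. Counts were taken on 4× images of lung cancer cell lines in 1536-well plates, 5 days after pin-tool dosing the day after seeding with one drug alone or a fixed anchor-drug dose plus five library-drug doses (not always all listed) in √10 steps.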

[2] = compound: CN(c1ncccc1CNc1nc(Nc2ccc3c(c2)CC(=O)N3)ncc1C(F)(F)F)S(C)(=O)=O + Nc1nc2[nH]cc(CCc3ccc(C(=O)N[C@@H](CCC(=O)O)C(=O)O)cc3)c2c(=O)[nH]1 [Pemetrexed] (partner 0.2 µM)
Method in brief: as §1

[3] = compound: CN(c1ncccc1CNc1nc(Nc2ccc3c(c2)CC(=O)N3)ncc1C(F)(F)F)S(C)(=O)=O + Cc1nc(Nc2ncc(C(=O)Nc3c(C)cccc3Cl)s2)cc(N2CCN(CCO)CC2)n1 [Dasatinib] (partner 0.075 µM)
Method in brief: as §1

[4] = compound: CN(c1ncccc1CNc1nc(Nc2ccc3c(c2)CC(=O)N3)ncc1C(F)(F)F)S(C)(=O)=O + Cc1cc(Nc2cc(N3CCN(C)CC3)nc(Sc3ccc(NC(=O)C4CC4)cc3)n2)n[nH]1 [Tozasertib] (partner 0.1 µM)
Method in brief: as §1

[5] = compound: CN(c1ncccc1CNc1nc(Nc2ccc3c(c2)CC(=O)N3)ncc1C(F)(F)F)S(C)(=O)=O + O=C(CCCCCCC(=O)Nc1ccccc1)NO [Vorinostat] (partner 1 µM)
Method in brief: as §1

[6] = compound: CN(c1ncccc1CNc1nc(Nc2ccc3c(c2)CC(=O)N3)ncc1C(F)(F)F)S(C)(=O)=O + O=C(c1cc(Cc2n[nH]c(=O)c3ccccc23)ccc1F)N1CCN(C(=O)C2CC2)CC1 [Olaparib] (partner 8 µM)
Method in brief: as §1

[7] = compound: CN(c1ncccc1CNc1nc(Nc2ccc3c(c2)CC(=O)N3)ncc1C(F)(F)F)S(C)(=O)=O + CC(=O)c1c(C)c2cnc(Nc3ccc(N4CCNCC4)cn3)nc2n(C2CCCC2)c1=O [Palbociclib] (partner 0.5 µM)
Method in brief: as §1

[8] = compound: CN(c1ncccc1CNc1nc(Nc2ccc3c(c2)CC(=O)N3)ncc1C(F)(F)F)S(C)(=O)=O + COc1cccc2cc(-c3nc([C@H]4CC[C@H](C(=O)O)CC4)n4ncnc(N)c34)[nH]c12 [OSI-027] (partner 0.5 µM)
Method in brief: as §1

[9] = compound: CN(c1ncccc1CNc1nc(Nc2ccc3c(c2)CC(=O)N3)ncc1C(F)(F)F)S(C)(=O)=O + CCNC(=O)c1noc(-c2cc(C(C)C)c(O)cc2O)c1-c1ccc(CN2CCOCC2)cc1 [Luminespib] (partner 0.01 µM)
Method in brief: as §1

[10] = compound: CN(c1ncccc1CNc1nc(Nc2ccc3c(c2)CC(=O)N3)ncc1C(F)(F)F)S(C)(=O)=O + NC(=O)Nc1cc(-c2cccc(F)c2)sc1C(=O)N[C@H]1CCCNC1 [AZD7762] (partner 0.2 µM)
Method in brief: as §1

[11] = compound: CN(c1ncccc1CNc1nc(Nc2ccc3c(c2)CC(=O)N3)ncc1C(F)(F)F)S(C)(=O)=O + CC(=O)Nc1cccc(-n2c(=O)n(C3CC3)c(=O)c3c(Nc4ccc(I)cc4F)n(C)c(=O)c(C)c32)c1 [Trametinib] (partner 0.02 µM)
Method in brief: as §1

[12] = compound: CN(c1ncccc1CNc1nc(Nc2ccc3c(c2)CC(=O)N3)ncc1C(F)(F)F)S(C)(=O)=O + Nc1ncn([C@H]2C[C@H](O)[C@@H](CO)O2)c(=O)n1 [Decitabine] (partner 2 µM)
Method in brief: as §1

[13] = compound: CN(c1ncccc1CNc1nc(Nc2ccc3c(c2)CC(=O)N3)ncc1C(F)(F)F)S(C)(=O)=O
Method in brief: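 Lung cancer cell lines were seeded into 1536-well plates, kept overnight at 37 °C and pinned with five library-drug doses (not always all listed) spaced by √10. After 5 days, nuclei were Hoechst-stained, imaged at 4× and counted with MetaXpress. Viability is treated-well nuclei over vehicle-well nuclei, taken as a median across plates. Plates needed control CV below 25% and at least one doubling.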

## NCI-H522
[1]; first compound 0.01 µM
  relative viability: 0.664
[1]; first compound 0.03162 µM
  relative viability: 0.645
[1]; first compound 0.1 µM
  relative viability: 0.629
[1]; first compound 0.3162 µM
  relative viability: 0.819
[1]; first compound 1 µM
  relative viability: 0.696
[2]; first compound 0.01 µM
  relative viability: 1.21
[2]; first compound 0.03162 µM
  relative viability: 0.923
[2]; first compound 0.1 µM
  relative viability: 1.03
[2]; first compound 0.3162 µM
  relative viability: 0.899
[2]; first compound 1 µM
  relative viability: 1.06
[3]; first compound 0.01 µM
  relative viability: 0.889
[3]; first compound 0.03162 µM
  relative viability: 0.832
[3]; first compound 0.1 µM
  relative viability: 0.95
[3]; first compound 0.3162 µM
  relative viability: 0.725
[3]; first compound 1 µM
  relative viability: 0.979
[4]; first compound 0.01 µM
  relative viability: 0.542
[4]; first compound 0.03162 µM
  relative viability: 0.447
[4]; first compound 0.1 µM
  relative viability: 0.469
[4]; first compound 0.3162 µM
  relative viability: 0.511
[4]; first compound 1 µM
  relative viability: 0.61
[5]; first compound 0.01 µM
  relative viability: 0.906
[5]; first compound 0.03162 µM
  relative viability: 1.06
[5]; first compound 0.1 µM
  relative viability: 0.919
[5]; first compound 0.3162 µM
  relative viability: 0.973
[5]; first compound 1 µM
  relative viability: 0.961
[6]; first compound 0.01 µM
  relative viability: 0.55
[6]; first compound 0.03162 µM
  relative viability: 0.594
[6]; first compound 0.1 µM
  relative viability: 0.575
[6]; first compound 0.3162 µM
  relative viability: 0.693
[6]; first compound 1 µM
  relative viability: 0.763
[7]; first compound 0.01 µM
  relative viability: 1.06
[7]; first compound 0.03162 µM
  relative viability: 1.01
[7]; first compound 0.1 µM
  relative viability: 1.08
[7]; first compound 0.3162 µM
  relative viability: 1.15
[7]; first compound 1 µM
  relative viability: 0.752
[8]; first compound 0.01 µM
  relative viability: 0.717
[8]; first compound 0.03162 µM
  relative viability: 0.703
[8]; first compound 0.1 µM
  relative viability: 0.726
[8]; first compound 0.3162 µM
  relative viability: 0.742
[8]; first compound 1 µM
  relative viability: 0.798
[9]; first compound 0.01 µM
  relative viability: 1.17
[9]; first compound 0.03162 µM
  relative viability: 1.2
[9]; first compound 0.1 µM
  relative viability: 1.17
[9]; first compound 0.3162 µM
  relative viability: 1.14
[9]; first compound 1 µM
  relative viability: 1.15
[10]; first compound 0.01 µM
  relative viability: 0.798
[10]; first compound 0.03162 µM
  relative viability: 0.979
[10]; first compound 0.1 µM
  relative viability: 0.737
[10]; first compound 0.3162 µM
  relative viability: 0.87
[10]; first compound 1 µM
  relative viability: 0.764
[11]; first compound 0.01 µM
  relative viability: 0.73
[11]; first compound 0.03162 µM
  relative viability: 0.813
[11]; first compound 0.1 µM
  relative viability: 0.698
[11]; first compound 0.3162 µM
  relative viability: 0.812
[11]; first compound 1 µM
  relative viability: 0.705
[12]; first compound 0.01 µM
  relative viability: 0.553
[12]; first compound 0.03162 µM
  relative viability: 0.685
[12]; first compound 0.1 µM
  relative viability: 0.649
[12]; first compound 0.3162 µM
  relative viability: 0.644
[12]; first compound 1 µM
  relative viability: 0.637
[13]; 0.01 µM
  relative viability: 0.916
[13]; 0.03162 µM
  relative viability: 0.918
[13]; 0.1 µM
  relative viability: 0.996
[13]; 0.3162 µM
  relative viability: 1
[13]; 1 µM
  relative viability: 1.02

From the supplement of paper PMC10307832
